Entries after “also recorded” stand apart in the source; their conditions may differ. No end group written: not given here.
Test system: Hgsnat^P304L MPS IIIC mice
Experiment: Open Field test
Assay type: in vivo, mouse
Details: for Open Field behaviour in WT mice vs saline: chronic daily treatment
Experimental: Method: Open field test that explores behaviour of animals in open area. Rodents normally avoid the center of the arena (anxiety reflex) and spend certain time immobile (freezing reflex). […]
The open-field test was performed as previously described. Briefly, mice were habituated in the experimental room for 45 mins before the commencement of the test. Each mouse was then gently placed in the center of the open-field arena and allowed to explore for 20 min. The mouse was removed and transferred to its home cage after the test, and the arena was cleaned with 70% ethanol before the commencement of the next test. Analysis of the behavioral activity was done using the Smart video tracking software (v3.0, Panlab Harvard Apparatus), and total distance traveled and percent of time spent in the center zone were measured for hyperactivity and anxiety assessment, respectively.
Starting from 3 weeks of age, WT C57B16 and homozygous Hgsnat^P304L male and female mice were randomly divided in treatment and control groups (6-13 mice/sex/genotype/treatment; see Table I). The control group was daily administered with saline (5 μL to each nostril), while for the treatment group, saline was supplemented with 125 µg of AVP6/mL, which would result in a dose of approximately 50 μg/kg BW/day. The peptide formulation was prepared once, aliquoted and kept frozen at −80° C. until use. At 4 months, all mice were studied by EPM, OF, YM and NOR behavioral tests. Administration of the drug or saline was continued through the days on which the assays were conducted. Then approximately at 5 months 4-5 mice in each group were sacrificed. Their blood plasma was collected, and their tissues were either snap-frozen or fixed and cryopreserved to analyze CNS pathology as described above. For the remaining mice, treatment was continued and their behaviour was studied again at the age of 6 months using OF. NOR and YM tests. Starting from the age of 8 months, Hgsnat^P304L treated and untreated mice were daily studied for the signs of urinary retention. When such signs were detected, the mice were studied by ERG and sacrificed within 1-2 days. Finally, the remaining treated and untreated WT mice were studied by ERG and sacrificed at the end of the study, approximately at 10 months of age.
We further tested if AVP6 can rescue neurobehavioral deficits associated with synaptic dysfunction in MPS IIIC mice. The early phase of the disease in both Hgsnat-Geo and Hgsnat^P304L mice manifests with reduced anxiety and hyperactivity. Specifically, in an Open Field (OF) test at both 4 months and 6 months, Hgsnat^P304L mice show a significant increase in a total distance traveled, increased time spent at the center of the arena and increased distance traveled in the center of the arena as compared with the WT animals. […] […] Control groups were treated with the same volume of saline.

[1] = chronic daily intranasal 50 μg/kg BW from 3 weeks, Hgsnat^P304L male and female mice at 4 months
[2] = chronic daily intranasal 50 μg/kg BW from 3 weeks, Hgsnat^P304L mice at 6 months
[3] = single intranasal 50 μg/kg 17 h before test, Hgsnat^P311L (P304L) mice, 4 and 6 months

AVP6: N-terminally acetylated Semax, a nootropic peptide having the amino acid sequence of MEHFPGP (SEQ ID NO:1) (Ac-MEHFPGP)
hyperactivity (total distance traveled), Open Field [1]: showed absence of these phenotypes; also recorded: show the rescue of all above deficits
reduced anxiety (time spent in the center), Open Field [1]: showed absence of these phenotypes; also recorded: show the rescue of all above deficits
hyperactivity (total distance traveled), Open Field [2]: significantly reduced; also recorded: show rescue of all above deficits
reduced anxiety (time spent in the center), Open Field [2]: significantly reduced; also recorded: show rescue of all above deficits
Open Field behaviour in WT mice vs saline (WT mice at 4 months): no difference was observed
Open Field behaviour in WT mice vs saline (WT mice at 6 months): No difference in behaviour was observed
hyperactivity (total distance traveled), Open Field [3]: rescues hyperactivity; also recorded: the total traveled distance was reduced; also recorded: Both parameters are normalized
reduced anxiety (time spent / distance traveled in the center), Open Field [3]: rescues hyperactivity and reduced anxiety; also recorded: time spend in the center increased; also recorded: Both parameters are normalized
